The values below come from patent US20150315130A1, “New positive allosteric modulators of nicotinic acetylcholine receptor” (H. LUNDBECK A/S, priority 2012, published 2015).

Usually EC50 stands for the midpoint of the concentration-response curve.

The assay deals with T1, human α7 receptor (Homo sapiens, UniProt P36544).
T1 construct: host or cells: rat GH4C1 cell line
Briefly: α7 NNR flux assay (FDSS calcium flux, Calcium-4 dye, PAM mode with acetylcholine). It is filed as cell-based. The following applies: human α7 receptor stably expressed in rat GH4C1 cells; enhancement of response to 20 μM acetylcholine; % modulation relative to PNU-120596 set to 100%. How it is done: The nicotinic acetylcholine receptor α7 is a calcium-permeable ion channel, whose activity can be measured by over expression in mammalian cells or oocytes. These two individual assays are described in Example 2 and 3, respectively.
In this version of the assay, the human α7 receptor is stably expressed in the rat GH4C1 cell line. The assay was used to identify positive allosteric modulators (PAMs) of the α7 receptor. Activation of the channel was measured by loading cells with the calcium-sensitive fluorescent dye Calcium-4 (Assay kit from Molecular Devices), and then measuring real-time changes in fluorescence upon treatment with test compounds.
The cell line ChanClone GH4C1-nAChRalphα7 from Genionics was seeded from frozen stock in 384-well plates in culture media 2-3 days before experiment to form an approximately 80% confluent layer on the day of experiment.
The cell culture was split into “22.5 cm×22.5 cm”-plates with approximately 100×10^3 cells/cm^2. After four days incubation in a humidified incubator at 37° C. and 5% CO2, it had grown to an 80-90% confluent layer, and the cells were harvested.
Two or three days before the experiment the cells were seeded in 384 well plates from Greiner bio-one (781946, CELLCOAT, Poly-D-Lysine, black, μClear).
The media was poured off and the plate washed with PBS and left to drain. 5 mL Trypsin was added, cells were washed and incubated (at room temperature) for about 10 seconds. Trypsin was poured of quickly and the cells were incubated for 2 minutes at 37° C. (if the cells were not already detached). Cells were resuspended in 10 mL culture media and transferred to 50 mL tubes.
The cell suspension was counted (NucleoCounter, total cell count) from the first plates to estimate the total cell number of the whole batch.
The cells were seeded in 384 well plates with 30 μL/well (30000 cells/well) while stirring the cell suspension or otherwise preventing the cells from precipitating.
The plates were incubated at room temperature for 30-45 minutes.
The plates were placed in incubator for two days (37° C. and 5% CO2).
The loading buffer was 5% v/v Calcium-4 Kit and 2.5 mM Probenecid in assay buffer.
Culture media were removed from the cell plates and 20 μL loading buffer was added in each well. The cell plates were placed in trays and incubated 90 minutes in the incubator (37° C.). Thereafter the plates were incubated 30 minutes at room temperature, still protected from light.
Now the cell plates were ready to run in the Functional Drug Screening System (FDSS).
The assay buffer was HBSS with 20 mM HEPES, pH 7.4 and 3 mM CaCl2.
200 nL 10 mM compound solution in DMSO was diluted in 50 μL assay buffer. The final test concentrations in the cell plates were 20-10-5-2.5-1.25-0.625-0.312-0.156-0.078-0.039 μM. Assay buffer and 3 μM PNU-120596 were used for control.
The agonist acetylcholine was added to a final concentration of 20 μM (˜E0100). In the FDSS7000 the Ex480-Em540 was measured with 1 second intervals. The baseline was made of 5 frames before addition of test compounds, and 95 frames more were made before addition of acetylcholine. The measurement stopped 30 frames after the 2nd addition. Raw data for each well were collected as “the maximum fluorescence count” in the interval 100-131 seconds and as “the average fluorescence count” in the interval 96-100 seconds. The positive allosteric modulation in the 2nd addition was the enhancement of agonist response with test compound compared to agonist alone.
Results were calculated as % modulation of test compound compared to the reference PNU-120596 set to 100%.

Structures are written as SMILES.

T1 sequence (P36544 23-502): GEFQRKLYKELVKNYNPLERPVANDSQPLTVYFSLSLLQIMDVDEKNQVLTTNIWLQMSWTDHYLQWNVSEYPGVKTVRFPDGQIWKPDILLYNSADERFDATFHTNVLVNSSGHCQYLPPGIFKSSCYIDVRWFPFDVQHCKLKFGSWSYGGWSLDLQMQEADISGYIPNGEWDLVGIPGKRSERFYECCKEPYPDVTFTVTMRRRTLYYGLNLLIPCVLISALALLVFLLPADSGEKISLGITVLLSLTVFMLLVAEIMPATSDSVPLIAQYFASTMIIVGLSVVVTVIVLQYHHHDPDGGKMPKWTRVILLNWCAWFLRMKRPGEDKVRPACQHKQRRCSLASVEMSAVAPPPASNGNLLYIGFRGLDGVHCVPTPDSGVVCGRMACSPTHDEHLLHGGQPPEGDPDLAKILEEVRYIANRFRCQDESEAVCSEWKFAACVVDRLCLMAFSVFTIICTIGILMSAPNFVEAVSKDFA

For the compound `COc1ccc([C@H](C)NC(=O)[C@H]2C[C@@H]2c2ccccc2)cc1` [Compound 1, (1S,2S)-2-Phenyl-cyclopropanecarboxylic acid [(S)-1-(4-methoxy-phenyl)ethyl]-amide], the EC50 was 1.5 µM.

With `O=C(N[C@@H](CCO)c1ccccc1)[C@H]1C[C@@H]1c1ccccc1` [Compound 2, (1S,2S)-2-Phenyl-cyclopropanecarboxylic acid ((S)-3-hydroxy-1-phenyl-propyl)-amide], the EC50 stood at 4.9 µM. Consider `C[C@H](NC(=O)[C@H]1C[C@@H]1c1ccccc1)c1ccc(F)cc1` [Compound 3, (1S,2S)-2-Phenyl-cyclopropanecarboxylic acid [(S)-1-(4-fluoro-phenyl)-ethyl]-amide], for which the EC50 is 2.4 µM. The figure for `COc1ccc([C@H](CO)NC(=O)[C@H]2C[C@@H]2c2cccc(F)c2)cc1` [Compound 4, (1S,2S)-2-(3-Fluoro-phenyl)-cyclopropanecarboxylic acid [(R)-2-hydroxy-1-(4-methoxy-phenyl)-ethyl]-amide] is 1.2 µM; for `Cc1ccc([C@H](C)NC(=O)[C@H]2C[C@@H]2c2ccccc2)cc1` [Compound 5, (1S,2S)-2-Phenyl-cyclopropanecarboxylic acid ((S)-1-p-tolyl-ethyl)-amide] it is 3.8 µM. As for `C[C@H](NC(=O)[C@H]1C[C@@H]1c1ccccc1)c1cccc(F)c1` [Compound 6, (1S,2S)-2-Phenyl-cyclopropanecarboxylic acid [(S)-1-(3-fluoro-phenyl)-ethyl]-amide], the half-maximal effective concentration (EC50) stood at 3.1 µM.

In the case of `O=C(N[C@@H](CO)c1ccc(OC(F)(F)F)cc1)[C@H]1C[C@@H]1c1ccccc1` [Compound 7, (1S,2S)-2-Phenyl-cyclopropanecarboxylic acid [(R)-2-hydroxy-1-(4-trifluoromethoxy-phenyl)-ethyl]-amide], the concentration for a half-maximal effect (EC50) amounted to 3.6 µM. For the compound `CCOc1ccc([C@H](CO)NC(=O)[C@H]2C[C@@H]2c2ccccc2)cc1` [Compound 8, (1S,2S)-2-Phenyl-cyclopropanecarboxylic acid [(R)-1-(4-ethoxy-phenyl)-2-hydroxy-ethyl]-amide], the EC50 was found to be 0.27 µM.

For `COc1ccc([C@H](CO)NC(=O)[C@H]2C[C@@H]2c2ccccc2)c(F)c1` [Compound 9, (1S,2S)-2-Phenyl-cyclopropanecarboxylic acid [(R)-1-(2-fluoro-4-methoxy-phenyl)-2-hydroxy-ethyl]-amide], the EC50 was found to be 0.61 µM. Take `COc1ccc([C@H](CO)NC(=O)[C@H]2C[C@@H]2c2ccccc2)cc1` [Compound 10, (1S,2S)-2-Phenyl-cyclopropanecarboxylic acid [(R)-2-hydroxy-1-(4-methoxy-phenyl)-ethyl]-amide]: the EC50 came to 0.645 µM.

As for `COc1cccc([C@H](C)NC(=O)[C@H]2C[C@@H]2c2ccccc2)c1` [Compound 11, (1S,2S)-2-Phenyl-cyclopropanecarboxylic acid [(S)-1-(3-methoxy-phenyl)ethyl]-amide], the EC50 worked out at 3 µM. In the case of `C[C@H](NC(=O)[C@H]1C[C@@H]1c1ccccc1)c1ccccc1F` [Compound 12, (1S,2S)-2-Phenyl-cyclopropanecarboxylic acid [(S)-1-(2-fluoro-phenyl)-ethyl]-amide], the EC50 was 1.9 µM. Turning to `COc1ccc([C@H](CO)NC(=O)[C@H]2C[C@@H]2c2ccc(F)cc2)cc1` [Compound 13, (1S,2S)-2-(4-Fluoro-phenyl)-cyclopropanecarboxylic acid [(R)-2-hydroxy-1-(4-methoxy-phenyl)-ethyl]-amide], the EC50 is 0.51 µM. Consider `COc1ccc([C@H](CO)NC(=O)[C@H]2C[C@@H]2c2cccc(F)c2)cc1` [Compound 14, (1S,2S)-2-(3-Fluoro-phenyl)-cyclopropanecarboxylic acid [(R)-2-hydroxy-1-(4-methoxy-phenyl)-ethyl]-amide], for which the EC50 is 0.4 µM.

As to `COc1ccc([C@H](CO)NC(=O)[C@H]2C[C@@H]2c2ccccc2F)cc1` [Compound 15, (1S,2S)-2-(2-Fluoro-phenyl)-cyclopropanecarboxylic acid [(R)-2-hydroxy-1-(4-methoxy-phenyl)-ethyl]-amide], the EC50 is 1.2 µM.

Regarding `COC[C@H](NC(=O)[C@H]1C[C@@H]1c1ccccc1)c1ccc(OC)cc1` [Compound 16, (1S,2S)-2-Phenyl-cyclopropanecarboxylic acid [(R)-2-methoxy-1-(4-methoxy-phenyl)-ethyl]-amide], the EC50 was 0.16 µM. Turning to `CCOc1ccc([C@H](COC)NC(=O)[C@H]2C[C@@H]2c2ccccc2)cc1` [Compound 17, (1S,2S)-2-Phenyl-cyclopropanecarboxylic acid [(R)-1-(4-ethoxy-phenyl)-2-methoxy-ethyl]-amide], the EC50 came out at 0.033 µM. With `O=C(N[C@@H](CO)c1ccc(O)cc1)[C@H]1C[C@@H]1c1ccccc1` [Compound 18, (1S,2S)-2-Phenyl-cyclopropanecarboxylic acid [(R)-2-hydroxy-1-(4-hydroxy-phenyl)-ethyl]-amide], the EC50 was determined as 3.9 µM. The figure for `COC[C@H](NC(=O)[C@H]1C[C@@H]1c1ccccc1)c1ccc(O)cc1` [Compound 19, (1S,2S)-2-Phenyl-cyclopropanecarboxylic acid [(R)-1-(4-hydroxy-phenyl)-2-methoxy-ethyl]-amide] is 3.6 µM. On to `COC[C@H](NC(=O)[C@H]1C[C@@H]1c1ccc(F)cc1)c1ccc(OC)cc1` [Compound 20, (1S,2S)-2-(4-Fluoro-phenyl)-cyclopropanecarboxylic acid [(R)-2-methoxy-1-(4-methoxy-phenyl)-ethyl]-amide], for which the EC50 is 0.084 µM. Under `COC[C@H](NC(=O)[C@H]1C[C@@H]1c1cccc(F)c1)c1ccc(OC)cc1` [Compound 21, (1S,2S)-2-(3-Fluoro-phenyl)-cyclopropanecarboxylic acid [(R)-2-methoxy-1-(4-methoxy-phenyl)-ethyl]-amide] stands 1.1 µM; under `O=C(N[C@@H](CO)c1ccc(O)cc1)[C@H]1C[C@@H]1c1ccc(F)cc1` [Compound 22, (1S,2S)-2-(4-Fluoro-phenyl)-cyclopropanecarboxylic acid [(R)-2-hydroxy-1-(4-hydroxy-phenyl)-ethyl]-amide], 3.2 µM.

With `O=C(N[C@@H](CO)c1ccc(O)cc1)[C@H]1C[C@@H]1c1cccc(F)c1` [Compound 23, (1S,2S)-2-(3-Fluoro-phenyl)-cyclopropanecarboxylic acid [(R)-2-hydroxy-1-(4-hydroxy-phenyl)-ethyl]-amide], the EC50 amounted to 3.8 µM. The figure for `O=C(N[C@@H](CO)c1ccc(OCCF)cc1)[C@H]1C[C@@H]1c1ccccc1` [Compound 24, (1S,2S)-2-Phenyl-cyclopropanecarboxylic acid {(R)-1-[4-(2-fluoro-ethoxy)phenyl]-2-hydroxy-ethyl}-amide] is 1.5 µM; for `O=C(N[C@@H](CO)c1ccc(OCCF)cc1)[C@H]1C[C@@H]1c1ccc(F)cc1` [Compound 25, (1S,2S)-2-(4-Fluoro-phenyl)-cyclopropanecarboxylic acid {(R)-1-[4-(2-fluoro-ethoxy)-phenyl]-2-hydroxy-ethyl}-amide] it is 0.14 µM.
